| melting point [°C] | Compound |
| --- | --- |
| 151 to 152 | CONC(=NS(=O)(=O)c1cccc(C)c1)N1CC(c2ccccc2)C(c2ccc(Cl)cc2)=N1 (stereo not drawn) |
| 145 to 146 | CONC(=NS(=O)(=O)c1ccccc1C)N1CC(c2ccccc2)C(c2ccc(Cl)cc2)=N1 (stereo not drawn) |
| 160 to 162 | CONC(=NS(=O)(=O)c1cc(F)c(F)cc1F)N1CC(c2ccccc2)C(c2ccc(Cl)cc2)=N1 (stereo not drawn) |
| 201 to 203 | CONC(=NS(=O)(=O)c1ccc(Cl)cc1)N1CC(c2ccccc2)C(c2ccc(F)cc2)=N1 (stereo not drawn) |
| 174 to 177 | CONC(=NS(=O)(=O)c1ccc(Cl)cc1)N1CC(c2c(F)cccc2F)C(c2ccc(Cl)cc2)=N1 (stereo not drawn) |
| 130 | O=S(=O)(N=C(NCCF)N1CC(c2cccc(F)c2)C(c2ccc(Cl)cc2)=N1)c1ccc(Cl)cc1 (stereo not drawn) |
| > 260 | CONC(=NS(=O)(=O)c1ccc(C(F)(F)F)cc1)N1CC(c2cccc(F)c2)C(c2ccc(Cl)cc2)=N1 (stereo not drawn) |
| 147 to 149 | CONC(=NS(=O)(=O)c1ccc(C(F)(F)F)cc1)N1CC(c2ccccc2F)C(c2ccc(Cl)cc2)=N1 (stereo not drawn) |
| 213 to 214 | O=S(=O)(N=C(NN1CCCCC1)N1CC(c2ccccc2)C(c2ccc(Cl)cc2)=N1)c1ccc(Cl)cc1 (stereo not drawn) [Example 1, 3-(4-Chlorophenyl)-N′-((4-chlorophenyl)sulfonyl)-N-(piperidin-1-yl)-4-phenyl-4,5-dihydro-1H-pyrazole-1-carboxamidine] |
| 180 to 181 | CONC(=NS(=O)(=O)c1ccc(Cl)cc1)N1CC(c2ccccc2)C(c2ccc(Cl)s2)=N1 (stereo not drawn) [Example 47, 3-(5-Chlorothien-2-yl)-N′-((4-chlorophenyl)sulfonyl)-N-methoxy-4-phenyl-4,5-dihydro-1H-pyrazole-1-carboxamidine] |
| 80 to 83 | CONC(=NS(=O)(=O)c1ccc(Cl)cc1)N1CC(c2cccc(C(F)(F)F)c2)C(c2ccc(Cl)cc2)=N1 (stereo not drawn) [Example 49, 3-(4-Chlorophenyl)-N′-((4-chlorophenyl)sulfonyl)-N-methoxy-4-(3-(trifluoromethyl)phenyl)-4,5-dihydro-1H-pyrazole-1-carboxamidine] |
| 153 to 155 | O=S(=O)(N=C(NCCF)N1CC(c2c(F)cccc2F)C(c2ccc(Cl)cc2)=N1)c1ccc(Cl)cc1 (stereo not drawn) [Example 51, 3-(4-Chlorophenyl)-N′-((4-chlorophenyl)sulfonyl)-N-(2-fluoroethyl)-4-(2,6-difluorophenyl)-4,5-dihydro-1H-pyrazole-1-carboxamidine] |
| 155 | O=S(=O)(N=C(NCCF)N1CC(c2cccc(F)c2)C(c2ccc(Cl)cc2)=N1)c1ccc(C(F)(F)F)cc1 (stereo not drawn) [Example 53, 3-(4-Chlorophenyl)-N-(2-fluoroethyl)-4-(3-fluorophenyl)-N′-((4-(trifluoromethyl)phenyl)sulfonyl)-4,5-dihydro-1H-pyrazole-1-carboxamidine] |
| 162 to 164 | CONC(=NS(=O)(=O)c1ccc(Cl)cc1)N1CC(c2ccccc2F)C(c2ccc(Cl)cc2)=N1 (stereo not drawn) [Example 56, 3-(4-Chlorophenyl)-N′-((4-chlorophenyl)sulfonyl)-4-(2-fluorophenyl)-N-(methoxy)-4,5-dihydro-1H-pyrazole-1-carboxamidine] |
| 97 to 100 | CN1CCN(C(=NS(=O)(=O)c2ccc(Cl)cc2)N2CC(c3cccc(C(F)(F)F)c3)C(c3ccc(Cl)cc3)=N2)CC1 (stereo not drawn) [Example 86, N-[(3-(4-chlorophenyl)-4-(3-(trifluoromethyl)phenyl)-4,5-dihydro-1H-pyrazol-1-yl)(4-methylpiperazin-1-yl)methylene]-4-chlorobenzenesulfonamide] |
